# Tests used:
# [1] = Stability of solvate/hydrate forms in the absence of solvent or at low humidity; assay type: physicochemical
# [2] = Slurry in water (conversion to hydrate); assay type: physicochemical
# [3] = Dynamic vapor sorption (DVS); assay type: physicochemical; conditions: for weight gain in DVS / dynamic moisture sorption experiment: at 95% RH
# Method: Automated vapor sorption data were collected on a TA Instruments Q5000SA vapor sorption analyzer. NaCl and PVP were used as calibration standards. Samples were not dried prior to analysis. Adsorption and desorption data were collected at 25° C. over a range from 5 to 95% RH at 10% RH increments under a nitrogen purge. Samples were held at the corresponding RH for 1 hour prior to moving to the next RH range. Data were not corrected for the initial moisture content of the samples.
# [4] = Solid-state physical form stability (accelerated 40° C./75% RH, high humidity, API stability studies); assay type: physicochemical
# [5] = Slurry interconversion experiments in pure isoamyl alcohol; assay type: physicochemical; conditions: Form B versus Form C in pure isoamyl alcohol
# Method: Form C was derived only from isoamyl alcohol and was initially formed at 5° C. It is crystalline by XRPD (FIG. 13) and PLM. […] This weight loss was divided into two broad steps: a 5.2% weight loss was observed from ambient to 105° C. and an additional 9.8% weight loss was observed from 105-125° C. (bp of isoamyl alcohol: 130° C.). The theoretical weight loss for a mono-solvate is 16.1% and 8.7% for a hemi-solvate. The crystal structure of Form C was solved. Form C is the mono-isoamyl alcoholate. […] The solvate, Form C, was favored at temperatures of 15° C. or below.
# [6] = Isothermal TGA dehydration; assay type: physicochemical
# Method: Weight change as a function of temperature was determined by TGA. […] 0.1-2 milligrams of the sample were placed in a DSC pan located on the sample holder. The sample holder was heated in the TGA from 25 to 300° C. at a heating rate of 10° C. min^−1. Dry N2 gas was used for purging. Isothermal experiments were conducted by heating the sample at 10° C./min to the desired temperature and then holding the sample at that temperature for at least 200 minutes.
# [7] = Solubility assessment as a function of pH and in different buffers and formulation vehicles; assay type: physicochemical
# From the text: The solubility behavior of GDC-0032 API is summarized as a Function of pH and in Different Buffers and Formulation Vehicles
# [8] = Solubility in solvents/solvent mixtures at two temperatures (visual dissolution, HPLC for suspensions); assay type: physicochemical
# Method: The solubility of GDC-0032 was determined in various solvents/solvent mixtures at two different temperatures: Ethanol absolute, Methanol, Isopropanol, Acetone, Ethyl Acetate, Isopropyl acetate, Tetrahydrofuran, 2-Butanone, Methanol/Water (50/50), 2,2,2-Trifluoroethanol (TFE), 2-Butanone, TFE/Ethyl acetate (50/50), TFE/Acetone (50/50), TFE/Water (50/50), Acetonitrile, Acetonitrile/water (50/50), Acetone/water (50/50), Tert-butyl methyl ether, n-Heptane, Ethanol/Ethyl acetate (50/50), Ethanol/Acetone (50/50), Methanol/water (90/10), Ethanol/Acetonitrile (50/50).
# For each experiment, approximately 5-10 mg of material was weighed in 40 mL vials. […] In each vial, the solvent was added to the solid in steps of 50 μL until dissolution or until a minimum concentration of 0.2 mg/mL was reached. Dissolution was assessed visually at two temperatures, room temperature (RT) and a higher temperature (Tmax=50 or 70° C., selected such that the boiling point of the solvent was higher than Tmax). Solubility was measured by HPLC for suspensions.
# [9] = Solubility of GDC-0032 in methanol at high temperature; assay type: physicochemical; conditions: approximately 15 mg in 500 mL methanol, 24 hours equilibration
# Method: Solubility of GDC-0032 in methanol at high temperature: Solubility of GDC-0032 in methanol at 45° C. and 55° C. was measured. Two slurries were prepared with approximately 15 mg of starting material and 500 mL of methanol. The slurries were subsequently placed in two ovens, at 45° C. and 55° C. each. After 24 hours of equilibration the two slurries were visually checked. In both cases the dissolution was not complete. The solids were separated from the mother liquor and were harvested both wet and dried for XRPD and digital imaging. The mother liquor was evaporated and the solids were also analyzed by XRPD and digital imaging.
# [10] = pKa and log P by potentiometric titration; assay type: physicochemical
# Method: GDC-0032 API is a white to off-white solid. It is crystalline as confirmed by the sharp peaks of its XRPD pattern and has a melting point of 258° C. Several physical forms of GDC-0032 free base, including an anhydrous form (Form B), several hydrates, and several solvates, have been identified to date. Form B has a melting point range of 256° C. to 258° C. Form B has been produced consistently in the API process to date. […] The reproducibility and stability of the crystalline form will be monitored during API synthesis and stability. GDC-0032 is non-hygroscopic, with less than 0.2% weight gain at 95% RH in the dynamic moisture sorption experiment.
# PI3K = conditions: cited from earlier work
smiles,measurement,setting,value
C1COCCO1.Cc1nc(-c2cn3c(n2)-c2ccc(-c4cnn(C(C)(C)C(N)=O)c4)cc2OCC3)n(C(C)C)n1.Cc1nc(-c2cn3c(n2)-c2ccc(-c4cnn(C(C)(C)C(N)=O)c4)cc2OCC3)n(C(C)C)n1 [Form AA],stability in the absence of the solvate solvent,[1],not stable
C1CCOC1.Cc1nc(-c2cn3c(n2)-c2ccc(-c4cnn(C(C)(C)C(N)=O)c4)cc2OCC3)n(C(C)C)n1 [Form AC],stability in the absence of the solvate solvent,[1],not stable
CO.Cc1nc(-c2cn3c(n2)-c2ccc(-c4cnn(C(C)(C)C(N)=O)c4)cc2OCC3)n(C(C)C)n1 [Form A],form obtained on slurrying in the presence of water,[2]; 50° C.,Form D
same,form obtained from water slurry experiment,"[2]; room temperature, after drying",mixture of Form A and Form D
Cc1nc(-c2cn3c(n2)-c2ccc(-c4cnn(C(C)(C)C(N)=O)c4)cc2OCC3)n(C(C)C)n1 [Form B],physical form after the DVS experiment,[3],still Form B
same,weight gain in DVS / dynamic moisture sorption experiment,[3],less than 0.3%
same,physical form after accelerated stability tests,[4]; 40° C. and 75% RH,unchanged
same,form change when exposed to high humidity,[4]; high humidity for at least 6 months,does not exhibit any form change
same,conversion on slurrying in water,"[2]; water, with and without Tween 80",no conversion to the hydrate
same,temperature at which the form is preferred/favored in slurry interconversion,[5],≥ 20 °C
CC(C)CCO.Cc1nc(-c2cn3c(n2)-c2ccc(-c4cnn(C(C)(C)C(N)=O)c4)cc2OCC3)n(C(C)C)n1 [Form C],temperature at which the form is preferred/favored in slurry interconversion,[5],≤ 15 °C
Cc1nc(-c2cn3c(n2)-c2ccc(-c4cnn(C(C)(C)C(N)=O)c4)cc2OCC3)n(C(C)C)n1.O [Form D],time to complete dehydration on the TGA,[6]; isothermal at 60° C.,≤ 40 min
same,time to complete dehydration on the TGA,[6]; isothermal at 100° C.,≤ 15 min
Cc1nc(-c2cn3c(n2)-c2ccc(-c4cnn(C(C)(C)C(N)=O)c4)cc2OCC3)n(C(C)C)n1.O [Form X],humidity at which Form X reversibly converts to Form Y,[1]; at 20° C.,10-20 % RH
CC(C)C(=O)C(C)C.Cc1nc(-c2cn3c(n2)-c2ccc(-c4cnn(C(C)(C)C(N)=O)c4)cc2OCC3)n(C(C)C)n1 [Form Z],stability in the absence of the solvate solvent,[1],converts to Form B
"Cc1nc(-c2cn3c(n2)-c2ccc(-c4cnn(C(C)(C)C(N)=O)c4)cc2OCC3)n(C(C)C)n1 [GDC-0032, 2-(4-(2-(1-isopropyl-3-methyl-1H-1,2,4-triazol-5-yl)-5,6-dihydrobenzo[f]imidazo[1,2-d][1,4]oxazepin-9-yl)-1H-pyrazol-1-yl)-2-methylpropanamide]",solubility,"[7]; FaSSIF, pH 6.8, at 37° C.",22 µg/mL
same,solubility,"[7]; FeSSIF, pH 5.0, at 37° C.",270 µg/mL
same,solubility,"[7]; aqueous buffer, 50 mM phosphate buffer, pH 6.5, at room temperature",0.72 µg/mL
same,solubility,"[7]; simulated gastric fluid, 0.1N HCl, pH 1.1, at room temperature",54 µg/mL
same,solubility,[7]; water,1.5 µg/mL
same,"solubility in 2,2,2-trifluoroethanol (TFE)",[8],high solubility
same,solubility in various solvents/solvent mixtures,"[8]; 23 listed solvents/mixtures, RT and Tmax 50 or 70° C.","soluble in all except for Ethyl Acetate, Isopropyl acetate, Tetrahydrofuran, Tert-butyl methyl ether, and n-Heptane"
same,dissolution in methanol,[9]; 45° C.,not complete
same,dissolution in methanol,[9]; 55° C.,not complete
same,weight gain in DVS / dynamic moisture sorption experiment,[3],less than 0.2%
same,logP,[10],2.5
same,pKa,[10]; weak base,3.19
same,physical form conversion in ongoing stability studies for the API,[4],no physical form conversion
same,PI3K activity,PI3K,potent

# — patent US9266903B2, “Polymorphs of 2-(4-(2-(1-isopropyl-3-methyl-1H-1,2,4-triazole-5-yl)-5,6-dihydrobenzo[F]imidazo [1,2-D][1,4]oxazepin-9-yl)-1H-pyrazol-1-yl)-2-methylpropanamide, methods of production, and pharmaceutical uses thereof” (Genentech, Inc., priority 2013, dated 2016)
